Reference: patent US10640506B2, “Cyclobutyl substituted pyrrolopyridine and pyrrolopyrimidines derivatives as JAK inhibitors” (Incyte Corporation, priority 2010, dated 2020)
Read-outs that look alike come from different tables or passages of the source.

How the values were obtained:
[1] = biological target: human JAK1 (a.a. 837-1142) (Homo sapiens, UniProt P23458); test: In vitro JAK kinase assay (HTRF, phosphorylation of biotinylated peptide), JAK1; format: biochemical; conditions: 1 mM ATP
Procedure, shortened: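 Phosphorylation of a biotinylated peptide was run at room temperature for 1 hour using the N-terminally His-tagged JAK1 kinase domain (837-1142) from insect cells. After an EDTA stop, Eu-Py20 and SA-APC gave an HTRF read; values are binned potency ranges.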

JAK2 (a.a. 828-1132) = biological target: T1, JAK2 (a.a. 828-1132) (Homo sapiens, UniProt O60674); test: In vitro JAK kinase assay (HTRF, phosphorylation of biotinylated peptide), JAK2; format: biochemical; conditions: 1 mM ATP
T1 construct: JAK2 (a.a. 828-1132); His tag (N)
T1 sequence (O60674 828-1132): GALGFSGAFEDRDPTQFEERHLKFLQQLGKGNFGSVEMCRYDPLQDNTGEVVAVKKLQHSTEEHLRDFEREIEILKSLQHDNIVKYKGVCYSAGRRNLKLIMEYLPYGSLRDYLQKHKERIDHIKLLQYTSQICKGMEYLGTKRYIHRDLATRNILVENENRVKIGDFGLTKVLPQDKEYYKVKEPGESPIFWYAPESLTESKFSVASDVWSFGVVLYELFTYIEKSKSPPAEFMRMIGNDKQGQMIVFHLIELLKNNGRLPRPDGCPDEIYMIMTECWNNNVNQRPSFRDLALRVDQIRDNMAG
Procedure, shortened: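 HTRF detection (Eu-Py20, SA-APC, 40 min) of biotinylated-peptide phosphorylation, following a 1 hour room-temperature reaction quenched with 45 mM EDTA. Enzymes: insect-cell-expressed N-terminal His-tagged JAK1 (837-1142) and JAK2 (828-1132) catalytic domains. Activities reported in ranged categories.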

Chain of human JAK1 (a.a. 837-1142) (P23458 849-1154): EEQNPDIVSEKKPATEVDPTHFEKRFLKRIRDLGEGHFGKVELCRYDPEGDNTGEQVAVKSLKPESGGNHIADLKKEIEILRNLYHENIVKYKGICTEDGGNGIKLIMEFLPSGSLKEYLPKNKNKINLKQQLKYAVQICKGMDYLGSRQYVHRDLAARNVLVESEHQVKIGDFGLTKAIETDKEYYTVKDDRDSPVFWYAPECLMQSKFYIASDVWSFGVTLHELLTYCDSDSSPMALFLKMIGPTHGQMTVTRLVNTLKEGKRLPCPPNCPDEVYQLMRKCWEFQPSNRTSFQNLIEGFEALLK

Structure (SMILES) | IC50 ([1]; Table F) [nM] | IC50 (JAK2 (a.a. 828-1132); Table F) [nM] | other results
CC(C)[C@H](C)NC(=O)N1CCN([C@H]2C[C@@](CC#N)(n3cc(-c4ncnc5[nH]ccc45)cn3)C2)CC1 [Example 111, 4-{cis-3-(cyanomethyl)-3-[4-(7H-pyrrolo[2,3-d]pyrimidin-4-yl)-1H-pyrazol-1-yl]cyclobutyl}-N-[(1S)-1,2-dimethylpropyl]piperazine-1-carboxamide] | 10 to 25 | > 100 | –
CC(C)(O)c1cc(C(=O)N2CCN([C@H]3C[C@](CC#N)(n4cc(-c5ccnc6[nH]ccc56)cn4)C3)CC2)nc(C(F)(F)F)n1 [Example 78, {trans-3-(4-{[6-(1-hydroxy-1-methylethyl)-2-(trifluoromethyl)pyrimidin-4-yl]carbonyl}piperazin-1-yl)-1-[4-(1H-pyrrolo[2,3-b]pyridin-4-yl)-1H-pyrazol-1-yl]cyclobutyl}acetonitrile] | < 10 | 25 to 100 | –
N#CC[C@]1(n2cc(-c3ncnc4[nH]ccc34)cn2)C[C@@H](N2CCN(Cc3cc(F)cc(C#N)c3)CC2)C1 [Example 1a, 3-[(4-{cis-3-(cyanomethyl)-3-[4-(7H-pyrrolo[2,3-d]pyrimidin-4-yl)-1H-pyrazol-1-yl]cyclobutyl}piperazin-1-yl)methyl]-5-fluorobenzonitrile] | – | – | IC50 ([1]; Table A, read-out: JAK1 IC50): < 10 nM; IC50 (JAK2 (a.a. 828-1132); Table A, read-out: JAK2 IC50): > 100 nM
CC(C)N(C)C(=O)N1CCN([C@H]2C[C@](CC#N)(n3cc(-c4ncnc5[nH]ccc45)cn3)C2)CC1 [Example 79, 4-{trans-3-(cyanomethyl)-3-[4-(7H-pyrrolo[2,3-d]pyrimidin-4-yl)-1H-pyrazol-1-yl]cyclobutyl}-N-isopropyl-N-methylpiperazine-1-carboxamide] | 25 to 100 | > 100 | –
N#CC[C@]1(n2cc(-c3ncnc4[nH]ccc34)cn2)C[C@@H](N2CCN(C(=O)c3cc(C4(N)CCC4)nc(C(F)(F)F)n3)CC2)C1 [Example 62, {cis-3-(4-{[6-(1-aminocyclobutyl)-2-(trifluoromethyl)pyrimidin-4-yl]carbonyl}piperazin-1-yl)-1-[4-(7H-pyrrolo[2,3-d]pyrimidin-4-yl)-1H-pyrazol-1-yl]cyclobutyl}acetonitrile] | < 10 | < 10 | –
CCNCc1cc(OC2CCN([C@H]3C[C@](CC#N)(n4cc(-c5ncnc6[nH]ccc56)cn4)C3)CC2)nc(C(F)(F)F)c1 [Example 131, {trans-3-(4-{[4-[(ethylamino)methyl]-6-(trifluoromethyl)pyridin-2-yl]oxy}piperidin-1-yl)-1-[4-(7H-pyrrolo[2,3-d]pyrimidin-4-yl)-1H-pyrazol-1-yl]cyclobutyl}acetonitrile] | < 10 | 25 to 100 | –
CC(C)(C)NCc1cc(OC2CCN([C@H]3C[C@@](CC#N)(n4cc(-c5ncnc6[nH]ccc56)cn4)C3)CC2)nc(C(F)(F)F)c1 [Example 128, {cis-3-(4-{[4-[(tert-butylamino)methyl]-6-(trifluoromethyl)pyridin-2-yl]oxy}piperidin-1-yl)-1-[4-(7H-pyrrolo[2,3-d]pyrimidin-4-yl)-1H-pyrazol-1-yl]cyclobutyl}acetonitrile] | 25 to 100 | > 100 | –
CC(C)OC(=O)N1CCN([C@H]2C[C@](CC#N)(n3cc(-c4ncnc5[nH]ccc45)cn3)C2)CC1 [Example 120, isopropyl 4-{trans-3-(cyanomethyl)-3-[4-(7H-pyrrolo[2,3-d]pyrimidin-4-yl)-1H-pyrazol-1-yl]cyclobutyl}piperazine-1-carboxylate] | < 10 | 25 to 100 | –
N#CC[C@]1(n2cc(-c3ncnc4[nH]ccc34)cn2)C[C@H](N2CCN(C(=O)N3CCC[C@H]3C(F)(F)F)CC2)C1 [Example 117, [trans-1-[4-(7H-pyrrolo[2,3-d]pyrimidin-4-yl)-1H-pyrazol-1-yl]-3-(4-{[(2S)-2-(trifluoromethyl)pyrrolidin-1-yl]carbonyl}piperazin-1-yl)cyclobutyl]acetonitrile] | 25 to 100 | > 100 | –
CC(C)[C@H](C)NC(=O)N1CCN([C@H]2C[C@](CC#N)(n3cc(-c4ncnc5[nH]ccc45)cn3)C2)CC1 [Example 94, 4-{trans-3-(cyanomethyl)-3-[4-(7H-pyrrolo[2,3-d]pyrimidin-4-yl)-1H-pyrazol-1-yl]cyclobutyl}-N-[(1S)-1,2-dimethylpropyl]piperazine-1-carboxamide] | < 10 | 25 to 100 | –
N#CC[C@]1(n2cc(-c3ncnc4[nH]ccc34)cn2)C[C@H](N2CCN(Cc3cc(F)cc(C#N)c3)CC2)C1 [Example 1b, 3-[(4-{trans-3-(cyanomethyl)-3-[4-(7H-pyrrolo[2,3-d]pyrimidin-4-yl)-1H-pyrazol-1-yl]cyclobutyl}piperazin-1-yl)methyl]-5-fluorobenzonitrile] | – | – | IC50 ([1]; Table B, read-out: JAK1 IC50): < 10 nM; IC50 (JAK2 (a.a. 828-1132); Table B, read-out: JAK2 IC50): 25 to 100 nM
N#CC[C@]1(n2cc(-c3ncnc4[nH]ccc34)cn2)C[C@H](N2CCN(C(=O)c3cc(C4=NCCN4)cc(C(F)(F)F)n3)CC2)C1 [Example 73, {trans-3-(4-{[4-(4,5-dihydro-1H-imidazol-2-yl)-6-(trifluoromethyl)pyridin-2-yl]carbonyl}piperazin-1-yl)-1-[4-(7H-pyrrolo[2,3-d]pyrimidin-4-yl)-1H-pyrazol-1-yl]cyclobutyl}acetonitrile] | < 10 | 10 to 25 | –
CN(C)Cc1cc(CN2CCN([C@H]3C[C@](CC#N)(n4cc(-c5ncnc6[nH]ccc56)cn4)C3)CC2)cc(C(F)(F)F)c1 [Example 45, {trans-3-{4-[3-[(dimethylamino)methyl]-5-(trifluoromethyl)benzyl]piperazin-1-yl}-1-[4-(7H-pyrrolo[2,3-d]pyrimidin-4-yl)-1H-pyrazol-1-yl]cyclobutyl}acetonitrile] | > 100 | > 100 | –
CS(=O)(=O)N1CCN([C@H]2C[C@](CC#N)(n3cc(-c4ncnc5[nH]ccc45)cn3)C2)CC1 [Example 119, {trans-3-[4-(methylsulfonyl)piperazin-1-yl]-1-[4-(7H-pyrrolo[2,3-d]pyrimidin-4-yl)-1H-pyrazol-1-yl]cyclobutyl}acetonitrile] | < 10 | 10 to 25 | –
N#CC[C@]1(n2cc(-c3ncnc4[nH]ccc34)cn2)C[C@@H](N2CCN(C(=O)c3ccc(F)c(F)c3)CC2)C1 [Example 15a, {cis-3-[4-(3,4-difluorobenzoyl)piperazin-1-yl]-1-[4-(7H-pyrrolo[2,3-d]pyrimidin-4-yl)-1H-pyrazol-1-yl]cyclobutyl}acetonitrile] | – | – | IC50 ([1]; Table A, read-out: JAK1 IC50): < 10 nM; IC50 (JAK2 (a.a. 828-1132); Table A, read-out: JAK2 IC50): 25 to 100 nM
N#CC[C@]1(n2cc(-c3ncnc4[nH]ccc34)cn2)C[C@H](N2CCC(Oc3cc(CO)nc(C(F)(F)F)n3)CC2)C1 [Example 146, {trans-3-(4-{[6-(hydroxymethyl)-2-(trifluoromethyl)pyrimidin-4-yl]oxy}piperidin-1-yl)-1-[4-(7H-pyrrolo[2,3-d]pyrimidin-4-yl)-1H-pyrazol-1-yl]cyclobutyl}acetonitrile] | 10 to 25 | > 100 | –
CN(C)Cc1cc(F)cc(CN2CCN([C@H]3C[C@](CC#N)(n4cc(-c5ncnc6[nH]ccc56)cn4)C3)CC2)c1 [Example 34, {trans-3-(4-{3-[(dimethylamino)methyl]-5-fluorobenzyl}piperazin-1-yl)-1-[4-(7H-pyrrolo[2,3-d]pyrimidin-4-yl)-1H-pyrazol-1-yl]cyclobutyl}acetonitrile] | – | – | IC50 ([1]; Table B, read-out: JAK1 IC50): < 10 nM; IC50 (JAK2 (a.a. 828-1132); Table B, read-out: JAK2 IC50): 10 to 25 nM
N#CC[C@]1(n2cc(-c3ncnc4[nH]ccc34)cn2)C[C@@H](N2CCN(C(=O)c3cncc(F)c3)CC2)C1 [Example 10a, {cis-3-{4-[(5-fluoropyridin-3-yl)carbonyl]piperazin-1-yl}-1-[4-(7H-pyrrolo[2,3-d]pyrimidin-4-yl)-1H-pyrazol-1-yl]cyclobutyl}acetonitrile] | – | – | IC50 ([1]; Table A, read-out: JAK1 IC50): < 10 nM; IC50 (JAK2 (a.a. 828-1132); Table A, read-out: JAK2 IC50): > 100 nM
N#CC[C@]1(n2cc(-c3ncnc4[nH]ccc34)cn2)C[C@H](N2CCN(C(=O)NC3CC3)CC2)C1 [Example 98, 4-{trans-3-(cyanomethyl)-3-[4-(7H-pyrrolo[2,3-d]pyrimidin-4-yl)-1H-pyrazol-1-yl]cyclobutyl}-N-cyclopropylpiperazine-1-carboxamide] | < 10 | > 100 | –
CC(C)c1nccc(C(=O)N2CCN([C@H]3C[C@](CC#N)(n4cc(-c5ncnc6[nH]ccc56)cn4)C3)CC2)n1 [Example 24b, {trans-3-{4-[(2-isopropylpyrimidin-4-yl)carbonyl]piperazin-1-yl}-1-[4-(7H-pyrrolo[2,3-d]pyrimidin-4-yl)-1H-pyrazol-1-yl]cyclobutyl}acetonitrile] | – | – | IC50 ([1]; Table B, read-out: JAK1 IC50): 10 to 25 nM; IC50 (JAK2 (a.a. 828-1132); Table B, read-out: JAK2 IC50): 25 to 100 nM
CC(C)(C)NCc1cc(C(=O)N2CCN([C@H]3C[C@](CC#N)(n4cc(-c5ncnc6[nH]ccc56)cn4)C3)CC2)nc(C(F)(F)F)n1 [Example 57, {trans-3-(4-{[6-[(tert-butylamino)methyl]-2-(trifluoromethyl)pyrimidin-4-yl]carbonyl}piperazin-1-yl)-1-[4-(7H-pyrrolo[2,3-d]pyrimidin-4-yl)-1H-pyrazol-1-yl]cyclobutyl}acetonitrile] | < 10 | 10 to 25 | –
CC[C@@H](C)NC(=O)N1CCN([C@H]2C[C@@](CC#N)(n3cc(-c4ncnc5[nH]ccc45)cn3)C2)CC1 [Example 105, 4-{cis-3-(cyanomethyl)-3-[4-(7H-pyrrolo[2,3-d]pyrimidin-4-yl)-1H-pyrazol-1-yl]cyclobutyl}-N-[(1R)-1-methylpropyl]piperazine-1-carboxamide] | 10 to 25 | 25 to 100 | –
N#CC[C@]1(n2cc(-c3ncnc4[nH]ccc34)cn2)C[C@H](N2CCN(Cc3cncc(F)c3)CC2)C1 [Example 23b, {trans-3-{4-[(5-fluoropyridin-3-yl)methyl]piperazin-1-yl}-1-[4-(7H-pyrrolo[2,3-d]pyrimidin-4-yl)-1H-pyrazol-1-yl]cyclobutyl}acetonitrile] | – | – | IC50 ([1]; Table B, read-out: JAK1 IC50): < 10 nM; IC50 (JAK2 (a.a. 828-1132); Table B, read-out: JAK2 IC50): 25 to 100 nM
